Measurements: patent US8106051B2, “Utilities of amide compounds” (Shionogi & Co., Ltd., priority 2001, dated 2012)

What was measured:
[1] = test system: promoter region of the gene encoding human apoAI; assay: Activity to enhance the expression of human apoAI (apoAI promoter-luciferase reporter in HepG2 cells); type: cell-based; settings: HepG2 cells stably expressing human apoAI promoter-firefly luciferase reporter; 24 hours incubation; 0 to 10 μg/mL; control DMSO
Description: The promoter region of the gene encoding human apoAI was isolated, and ligated upstream the structure gene of firefly luciferase to construct a reporter plasmid. The reporter plasmid and a marker plasmid conferring the neomycin resistance were co-infected to cell lines derived from human hepatoma, HepG2 cells, and the cell lines were incubated in a selection medium comprising DMEM medium containing 10% fetal calf serum supplemented with G418 (Final concentration: 0.7 mg/mL, Gibco) to give established strains that stably expressed the reporter molecule. The strains were seeded to a 96-well culture plates at a density of 50,000 cells per well, and incubated for 48 hours at 37° C. under an atmosphere of 5% carbon dioxide. Then, a solution of the compounds according to the invention in DMSO was added to the wells at final concentrations of 0 to 10 μg/mL. After further incubation for 24 hours, the cells were added with a luciferase assay reagent (Piccagene LT 7.5 registered trade mark, Toyo Ink, KK), and the luciferase activity was determined using a luminometer (MicroBeta™ TRILUX, 1 sec/well, Wallac). The concentration of the compounds, which intensified the luciferase activity twice compared to that of control (DMSO without any compound of the invention added) was set as the minimal effective dose (MED).

| melting point | Compound | MED (minimal effective dose): concentration which intensified the luciferase activity twice compared to that of control [1] |
| --- | --- | --- |
| 177 to 178 °C | O=C(C=Cc1ccccc1)Nc1cnc2ccccc2n1 [Ia-9, 3-Phenyl-N-quinoxalin-2-yl-acrylamide] |  |
|  | Cc1ccc(NC(=O)c2ccc(Cl)cc2)cc1 [Ib-17, 4-Chloro-N-(4-tolyl)benzamide] | 0.30 µg/mL |
